Broadly, the viability, T/C is the result in the treated group divided by that in the control group, in per cent. As a reminder, the IC50 is the concentration at which inhibition is half-maximal.

Values joined by “and” are separate entries in the source; they are usually repeats but may differ in a detail not shown here. Equal values may be shown once. A value given as a limit tells only on which side of the number the result lay.

The subject of this test is 171881-019-R-J1-PDC complex spheroid viability. Put plainly: Anticancer human tumor 171881-019-R-J1-PDC patient-derived invasive breast carcinoma cell line growth inhibition. The settings on record: for viability, T/C: stronger effect = lower value. In short, it runs like this: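 Complex spheroids of tumor cells with HUVEC and human MSCs, exposed to iadademstat combined with other agents. Each agent tested in half-log steps from near clinical Cmax (else 10 microM top), DMSO ≤0.25%.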

[1] abbreviates: curve of first compound, second compound 0.1 µM.
[2] abbreviates: curve of first compound, second compound 0.316 µM.
Where [3] appears, read: curve of first compound, second compound 1 µM.
Setting [4] is: curve of first compound, second compound 3.16 µM.
Where [5] appears, read: curve of first compound, second compound 10 µM.
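Further: spheroids exposed to agents for 7 days after 3 days growth.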

For the compound `CCc1c2c(nc3ccc(O)cc13)-c1cc3c(c(=O)n1C2)COC(=O)[C@]3(O)CC`, the viability, T/C by setting is: (compound 0.000949 µM) 59.6% and 33.9%; (compound 0.003 µM) 43% and 40.4%; (compound 0.00949 µM) 26.6% and 22%; (compound 0.03 µM) 19.3% and 18.7%; (compound 0.0949 µM) 10.9% and 21%; (compound 0.3 µM) 6.24% and 21.4%. The half-inhibitory concentration (IC50) (curve of compound) was 1.8 nM and < 0.949 nM.

In the case of `CC1(C)CCC(CN2CCN(c3ccc(C(=O)NS(=O)(=O)c4ccc(NCC5CCOCC5)c([N+](=O)[O-])c4)c(Oc4cnc5[nH]ccc5c4)c3)CC2)=C(c2ccc(Cl)cc2)C1`, the viability, T/C was 93.7% and 93.8% (compound 0.0316 µM); 87% and 96.2% (compound 0.1 µM); 93% and 86.7% (compound 0.316 µM); 77% and 58.6% (compound 1 µM); 37.4% and 21.2% (compound 3.16 µM); 3.33% and 4.05% (compound 10 µM). Besides, the concentration for half-maximal inhibition (IC50) (curve of compound) is 2200 nM and 1310 nM.

On to `CC(C)CC(NC(=O)CNC(=O)c1cc(Cl)ccc1Cl)B1OC(=O)CC(CC(=O)O)(C(=O)O)O1` (stereo not given) + NC1CC1c1ccc(-c2cccc(O)c2)cc1, for which the 50% inhibitory concentration (IC50) is 0.885 nM under setting [1]; 1.06 nM under setting [2]; 0.719 nM under setting [3]; less than 0.316 nM under setting [4]; less than 0.316 nM under setting [5]. Further, the viability, T/C was 95% (second compound 0.1 µM, first compound 0.000316 µM); 35.5% (second compound 0.1 µM, first compound 0.001 µM); 38.4% (second compound 0.1 µM, first compound 0.00316 µM); 23% (second compound 0.1 µM, first compound 0.01 µM); 5.32% (second compound 0.1 µM, first compound 0.0316 µM); 15.9% (second compound 0.1 µM, first compound 0.1 µM). The viability, T/C reads like this: (second compound 0.316 µM, first compound 0.000316 µM) 91.9%; (second compound 0.316 µM, first compound 0.001 µM) 49.9%; (second compound 0.316 µM, first compound 0.00316 µM) 28.8%; (second compound 0.316 µM, first compound 0.01 µM) 24.4%; (second compound 0.316 µM, first compound 0.0316 µM) 13.9%; (second compound 0.316 µM, first compound 0.1 µM) 11.5%. Besides, the viability, T/C runs as follows: (second compound 1 µM, first compound 0.000316 µM) 76.5%; (second compound 1 µM, first compound 0.001 µM) 39.3%; (second compound 1 µM, first compound 0.00316 µM) 16.2%; (second compound 1 µM, first compound 0.01 µM) 8.02%; (second compound 1 µM, first compound 0.0316 µM) 11.6%; (second compound 1 µM, first compound 0.1 µM) 5.3%. In addition, the viability, T/C reads like this: (second compound 3.16 µM, first compound 0.000316 µM) 43.9%; (second compound 3.16 µM, first compound 0.001 µM) 42.6%; (second compound 3.16 µM, first compound 0.00316 µM) 6.48%; (second compound 3.16 µM, first compound 0.01 µM) 6.09%; (second compound 3.16 µM, first compound 0.0316 µM) 12.3%; (second compound 3.16 µM, first compound 0.1 µM) 12.9%. Also, the viability, T/C was 19.6% (second compound 10 µM, first compound 0.000316 µM); 24.7% (second compound 10 µM, first compound 0.001 µM); 1.13% (second compound 10 µM, first compound 0.00316 µM); 4.15% (second compound 10 µM, first compound 0.01 µM); 4.16% (second compound 10 µM, first compound 0.0316 µM); 4.12% (second compound 10 µM, first compound 0.1 µM).

As for `O=C(C=Cn1cnc(-c2cc(C(F)(F)F)cc(C(F)(F)F)c2)n1)NNc1cnccn1`, the viability, T/C is, setting by setting: (compound 0.00316 µM) 16.8% and 17.6%; (compound 0.01 µM) 12.1% and 12.7%; (compound 0.0316 µM) 4.83% and 4.44%; (compound 0.1 µM) 1.49% and 1.82%; (compound 0.316 µM) 1.62% and 1.88%; (compound 1 µM) 1.54% and 1.63%. Besides, the IC50 (curve of compound) is less than 3.16 nM.

On to `Nc1ncn(C2CC(O)C(CO)S2)c(=O)n1` (stereo not given) + NC1CCC(NC2CC2c2ccccc2)CC1, for which the IC50 is, setting by setting: under setting [1], 193 nM; under setting [2], 175 nM; under setting [3], 192 nM; under setting [4], 202 nM; under setting [5], 229 nM. For the same compound, the viability, T/C was 85.7% (second compound 0.1 µM, first compound 0.000949 µM); 82.5% (second compound 0.1 µM, first compound 0.003 µM); 94.3% (second compound 0.1 µM, first compound 0.00949 µM); 105% (second compound 0.1 µM, first compound 0.03 µM); 70.9% (second compound 0.1 µM, first compound 0.0949 µM); 37.2% (second compound 0.1 µM, first compound 0.3 µM). In addition, the viability, T/C by setting is: (second compound 0.316 µM, first compound 0.000949 µM) 91.2%; (second compound 0.316 µM, first compound 0.003 µM) 75.8%; (second compound 0.316 µM, first compound 0.00949 µM) 90.9%; (second compound 0.316 µM, first compound 0.03 µM) 116%; (second compound 0.316 µM, first compound 0.0949 µM) 66.4%; (second compound 0.316 µM, first compound 0.3 µM) 35.7%. Besides, the viability, T/C runs as follows: (second compound 1 µM, first compound 0.000949 µM) 73.4%; (second compound 1 µM, first compound 0.003 µM) 84%; (second compound 1 µM, first compound 0.00949 µM) 94.8%; (second compound 1 µM, first compound 0.03 µM) 101%; (second compound 1 µM, first compound 0.0949 µM) 66.8%; (second compound 1 µM, first compound 0.3 µM) 39.3%. Further, the viability, T/C (second compound 3.16 µM, first compound 0.000949 µM) was 85.1%; the viability, T/C (second compound 3.16 µM, first compound 0.003 µM) is 87.5%; the viability, T/C (second compound 3.16 µM, first compound 0.00949 µM) was 111%; the viability, T/C (second compound 3.16 µM, first compound 0.03 µM) was 109%; the viability, T/C (second compound 3.16 µM, first compound 0.0949 µM) is 66.6%; the viability, T/C (second compound 3.16 µM, first compound 0.3 µM) was 41.3%. In addition, the viability, T/C was 85.4% (second compound 10 µM, first compound 0.000949 µM); 90.8% (second compound 10 µM, first compound 0.003 µM); 98.8% (second compound 10 µM, first compound 0.00949 µM); 93.8% (second compound 10 µM, first compound 0.03 µM); 69.1% (second compound 10 µM, first compound 0.0949 µM); 44.1% (second compound 10 µM, first compound 0.3 µM).

As to `O=C(C=Cc1cccc(S(=O)(=O)Nc2ccccc2)c1)NO`, the viability, T/C (compound 0.00949 µM) was 95.8% and 103%; the viability, T/C (compound 0.03 µM) is 96.6% and 93%; the viability, T/C (compound 0.0949 µM) was 111% and 99.2%; the viability, T/C (compound 0.3 µM) was 72.5% and 65.1%; the viability, T/C (compound 0.949 µM) is 0.88% and 1.85%; the viability, T/C (compound 3 µM) is 0.2% and 0.16%. The IC50 (curve of compound) was 430 nM and 395 nM.

Regarding `Nc1ccn(C2OC(CO)C(O)C2(F)F)c(=O)n1` (stereo not given), the viability, T/C runs as follows: (compound 0.000949 µM) 73.3% and 67.7%; (compound 0.003 µM) 53.2% and 58.2%; (compound 0.00949 µM) 57.9% and 55.9%; (compound 0.03 µM) 62.1% and 61.5%; (compound 0.0949 µM) 64.6% and 63.9%; (compound 0.3 µM) 58.1% and 64.4%. For the same compound, the concentration for half-maximal inhibition (IC50) (curve of compound) was more than 300 nM.

(Values after PubChem BioAssay AID1918932 (Molecular Pharmacology Branch, DTP, NCI, 2023).)
